How the values were obtained:
Chloroflexus isolate T12 [1] = assay: Growth on sole energy sources (metabolism experiments); type: cell-based, thermophilic Chloroflexi-like bacteria; details: for Growth of T12 on alcohol as sole energy source, FS3V: alcohol 0.05% v/v, aerobic, 60° C.
Protocol: (§1) Mineral salts medium FS3V, FeEDTA, Trace elements solution and AOM1 medium were prepared as for Example 1. Energy sources were added to both media prior to autoclaving (0.5 g/L), except where noted, via syringe filter.
(§2) Unless otherwise stated, the following growth conditions were used for all experiments; Chloroflexus strains were grown aerobically at 60° C. in capped 100 mL serum bottles containing 50 mL of medium and 50 mL air headspace. No CO2 was amended to the headspace. Medium was sterilised via autoclaving (121° C., 20 min). Fifty μL of culture was inoculated into 50 mL of sterile medium. Stock Chloroflexus strains were maintained in liquid culture on mannose and on carboxymethylcellulose (CMC), and on phytagel-based solid medium.
(§3) Growth experiments to determine growth using different energy sources were conducted using the basal media, AOM1 or FS3V. No yeast extract (YE) or vitamins were added as growth supplements to either medium in these series of experiments. […] Both the YE and vitamin mix were also tested as sole energy sources.
(§4) Sole energy sources were added at a concentration of (0.5 g/L). […] Yeast extract (Becton Dickinson, 211929), sodium pyruvate (Sigma, P2256), sodium citrate (Ajax Finechem, A467,) and sodium acetate (Sigma, S2881), were also tested as sole energy sources, along with the alcohols methanol (Merck, 1.06018), ethanol (Merck, 1.00983), 1-propanol (Merck, 1.01024), 2-propanol (Merck, 1.01040), pentanol (Sigma, 138975) and butanol (Sigma, 1.01988). A vitamin mix was tested as a sole energy source. The vitamin mixture contained (in 100 mg): 0.8 mg folic acid; 8 mg vitamin B1; 4 mg vitamin B2; 1 mg niacin; 10 mg niacinamide; 15 mg pantothenate; 15 mg pyridoxine; 5 mg cobalamin; 5 mg biotin; 15 mg choline; 15 mg inositol; 7 mg para-amino benzoic acid and was tested at 10 and 100 mg/L.
(§5) Experiments were inoculated using stock cultures of T81, T12 and T26 grown in a corresponding medium with a corresponding energy source type. For example, inoculum for testing growth on a cellulose-based compound was grown in the corresponding medium with a cellulose-based compound as an energy source. All energy sources were added at a concentration of 0.5 g/L prior to autoclave sterilisation, except for D-N-acetylglucosamine, D-(−)-fructose, sodium acetate, sodium citrate, sodium pyruvate, methanol, ethanol, 1-propanol, 2-propanol, pentanol and butanol which were added via filter sterilisation (0.22 μm pore size membrane syringe filter). Tests were conducted in triplicate with a sterile control.

Chloroflexus isolate T81 [2] = assay: as above; type: cell-based, thermophilic Chloroflexi-like bacteria; details: aerobic, 60° C.; for Growth of T81 on alcohol as sole energy source, FS3V: alcohol 0.05% v/v; for Growth of T81 on sole energy source, FS3V: FS3V medium (pH 4.5), energy source 0.5 g/L
Chloroflexus isolate T26 = assay: as above; type: cell-based, thermophilic Chloroflexi-like bacteria; details: aerobic, 60° C.; for Growth of T26 on sole energy source, AOM1: AOM1 medium (pH 6.5), energy source 0.5 g/L
Protocol: as §1, §2, §3, §4, §5

Chloroflexus isolate T81 [3] = assay: as above; type: cell-based, thermophilic Chloroflexi-like bacteria; details: AOM1 (pH 6.5) and FS3V (pH 4.5)
Protocol: as §1, §2, §3, §4, §5

Strain T81 = assay: Preference for alcohols over saccharides (fructose with ethanol, HPLC); type: cell-based, thermophilic Chloroflexi-like bacteria; details: FS3V, 60° C.
Protocol: Unless otherwise stated, sugars and/or alcohols were measured on a Dionex Ultimate 3000® High Performance Liquid Chromatography (HPLC) unit via refractive index (RI) on a Shodex RI-101 unit (Dionex, Utah, USA). The RI unit was run at 35° C. Samples (10 μL) were injected into a degassed water carrier solution running at 0.6 mL/min. Samples were separated on a Varian PL Hi-Plex H (8 μm, 300×7.7 mm) at 60° C. (Varian, Massachusetts, USA). Chromatographs were interpreted using Chromeleon® software (Dionex, Utah, USA). Strain […] was also tested for it's preference for alcohols over saccharides. […] Strain […] was inoculated and incubated statically at 60° C. One milliliter samples were taken daily and frozen for analysis using HPLC.

Chloroflexus isolate T12 [4] = details: FS3V, pH 4.5; ethanol as sole energy source
Protocol: All three Chloroflexus strains were tested for their ability to grow on elevated levels of ethanol. Ethanol at concentrations of 0.1%, 1.0%, 2.0%, 5.0%, 7.5%, and 10.0% (v/v) were asceptically added into FS3V medium following sterilisation as the sole energy source. Strains were then inoculated and incubated statically.

[5] = system: Chloroflexus strains T81, T26 and T12; assay: Growth on energy sources, statements for all three strains together; type: cell-based, thermophilic Chloroflexi-like bacteria
Protocol: Growth experiments to determine growth using different energy sources were conducted using the basal media, AOM1 or FS3V. No yeast extract (YE) or vitamins were added as growth supplements to either medium in these series of experiments. Preliminary experiments have shown that they are not requited. Both the YE and vitamin mix were also tested as sole energy sources. Sole energy sources were added at a concentration of (0.5 g/L). […] A vitamin mix was tested as a sole energy source. The vitamin mixture contained (in 100 mg): 0.8 mg folic acid; 8 mg vitamin B1; 4 mg vitamin B2; 1 mg niacin; 10 mg niacinamide; 15 mg pantothenate; 15 mg pyridoxine; 5 mg cobalamin; 5 mg biotin; 15 mg choline; 15 mg inositol; 7 mg para-amino benzoic acid and was tested at 10 and 100 mg/L. Experiments were inoculated using stock cultures of […], T12 and […] grown in a corresponding medium with a corresponding energy source type. For example, inoculum for testing growth on a cellulose-based compound was grown in the corresponding medium with a cellulose-based compound as an energy source. […] Bacterial growth was determined visually as optical density (OD) measurements are not possible due to growth characteristics of the Chloroflexi isolates. […] Cellulose pulp degradation and sugar generation by Chloroflexus strain […] was assessed. […] Growth on the various pulp tablets was assessed visually.

CCCCCO [1-pentanol]
Growth of T12 on alcohol as sole energy source, FS3V (Chloroflexus isolate T12 [1]): exception
Growth of T81 on alcohol as sole energy source, FS3V (Chloroflexus isolate T81 [2]): exception

O=C[C@@H](O)[C@H](O)[C@H](O)CO [D-(+)-arabinose]
Growth of T81 on sole energy source, FS3V (Chloroflexus isolate T81 [2]): grew

OC[C@H]1O[C@@H](O[C@H]2[C@H](O)[C@@H](O)[C@H](O)O[C@@H]2CO)[C@H](O)[C@@H](O)[C@@H]1O [D-(+)-cellobiose]
Growth of T26 on sole energy source, AOM1 (Chloroflexus isolate T26): could grow
Growth of T81 on both media (Chloroflexus isolate T81 [3]): grew

O=C[C@H](O)[C@@H](O)[C@@H](O)[C@H](O)CO [D-(+)-galactose]
Growth of T81 on both media (Chloroflexus isolate T81 [3]): grew

OC[C@H]1O[C@H](O[C@H]2[C@H](O)[C@@H](O)[C@H](O)O[C@@H]2CO)[C@H](O)[C@@H](O)[C@@H]1O [D-(+)-maltose]
Growth of T81 on both media (Chloroflexus isolate T81 [3]): grew

O=C[C@@H](O)[C@@H](O)[C@H](O)[C@H](O)CO [D-(+)-mannose]
Growth of Strain T12 in AOM1 medium adjusted to pH 4.5 (Chloroflexus isolate T12 [1]; AOM1 medium adjusted to pH 4.5): able to grow
Growth of T81 on both media (Chloroflexus isolate T81 [3]): grew

OC[C@H]1O[C@H](O[C@H]2O[C@H](CO)[C@@H](O)[C@H](O)[C@H]2O)[C@H](O)[C@@H](O)[C@@H]1O [D-(+)-trehalose]
Growth of T81 on both media (Chloroflexus isolate T81 [3]): grew

O=C[C@H](O)[C@@H](O)[C@H](O)CO [D-(+)-xylose]
Growth of T81 on both media (Chloroflexus isolate T81 [3]): grew

O=C(CO)[C@@H](O)[C@H](O)[C@H](O)CO [D-(−)-fructose]
Growth of T81 on both media (Chloroflexus isolate T81 [3]): grew
Consumption by T81 in presence of ethanol and fructose (Strain T81; ethanol (0.05% w/v) and fructose (0.05% w/v)): consumed fructose in preference to ethanol

O=C[C@H](O)[C@H](O)[C@H](O)CO [D-(−)-ribose]
Growth of T81 on sole energy source, FS3V (Chloroflexus isolate T81 [2]): grew

CC(=O)N[C@H]1C(O)O[C@H](CO)[C@@H](O)[C@@H]1O (stereo partly drawn) [D-N-acetylglucosamine]
Growth of T26 on sole energy source, AOM1 (Chloroflexus isolate T26; listed as D-N-actylglucosamine): could grow

O=C[C@H](O)[C@@H](O)[C@H](O)[C@H](O)CO [D-glucose]
Growth of T81 on both media (Chloroflexus isolate T81 [3]): grew

C[C@@H]1O[C@@H](O)[C@H](O)[C@H](O)[C@H]1O.O [L-rhammnose monohydrate]
Growth of T26 on sole energy source, AOM1 (Chloroflexus isolate T26; listed as L-rhamnose monohydrate, monohydrate): could grow
Growth of T81 on both media (Chloroflexus isolate T81 [3]): grew

CCO [ethanol]
Ethanol concentrations Strain T12 was able to grow on, up to (and including) (Chloroflexus isolate T12 [4]): ≤ 5.0 % (v/v)
Ethanol concentrations all strains were able to grow on, up to (and including) ([5]; FS3V, ethanol as sole energy source): ≤ 2.0 % (v/v)
Effect of ethanol on growth of strain T81 (Strain T81; 5% (w/v) ethanol and 0.05% (w/v) fructose): inhibited the growth

O=C[C@H](O)[C@@H](O)[C@@H](O)[C@H](O)C(=O)O [galacturonic acid]
Support of growth / energy for the isolates T81, T26 and T12 ([5]; sole energy sources, AOM1 or FS3V): did not support growth

CCCO [propanol]
Growth of T26 on alcohol as sole energy source, FS3V (Chloroflexus isolate T26; FS3V, alcohol 0.05% v/v): best growth
Growth of T81 on alcohol as sole energy source, FS3V (Chloroflexus isolate T81 [2]): best growth

OC[C@H]1O[C@H](OC[C@H]2O[C@H](O[C@]3(CO)O[C@H](CO)[C@@H](O)[C@@H]3O)[C@H](O)[C@@H](O)[C@@H]2O)[C@H](O)[C@@H](O)[C@H]1O [raffinose]
Growth of T81 on both media (Chloroflexus isolate T81 [3]): grew

OC[C@H]1O[C@@](CO)(O[C@H]2O[C@H](CO)[C@@H](O)[C@H](O)[C@H]2O)[C@@H](O)[C@@H]1O [sucrose]
Growth of T81 on both media (Chloroflexus isolate T81 [3]): grew

butanol
Growth of T12 on alcohol as sole energy source, FS3V (Chloroflexus isolate T12 [1]): exception

From patent publication US8597920B2, “Class of Chloroflexi-like thermophilic cellulose degrading bacteria” (priority 2008, dated 2013)
